In the experiment the target is T1, RXFP3 (h) (agonist radioligand) (Homo sapiens, UniProt Q9NSD7).
T1 sequence (Q9NSD7 1-469): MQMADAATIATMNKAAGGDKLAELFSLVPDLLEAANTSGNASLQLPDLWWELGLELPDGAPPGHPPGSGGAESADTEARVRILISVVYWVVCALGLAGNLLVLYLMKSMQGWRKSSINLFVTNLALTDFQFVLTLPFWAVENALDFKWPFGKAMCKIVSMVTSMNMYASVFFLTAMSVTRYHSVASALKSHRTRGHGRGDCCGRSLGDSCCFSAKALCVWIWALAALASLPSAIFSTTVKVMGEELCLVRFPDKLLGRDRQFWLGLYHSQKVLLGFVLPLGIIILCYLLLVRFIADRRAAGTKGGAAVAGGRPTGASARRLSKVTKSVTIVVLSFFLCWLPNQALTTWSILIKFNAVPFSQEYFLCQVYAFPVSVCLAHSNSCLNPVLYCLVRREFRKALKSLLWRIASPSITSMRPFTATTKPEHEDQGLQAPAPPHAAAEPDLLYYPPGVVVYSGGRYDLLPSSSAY
Put plainly: GPCR Biosensor cAMP Hunter assay, RXFP3. The experiment is classed as cell-based. How it is done:
Benedin is found to weakly bind with RXFP4 and RXFP3 receptors (Study FR095-0024749-Q Eurofins/leadHunter Jun. 25, 2021; unpublished data) (Table 2).
In these assays' compounds were tested in agonist and antagonist mode with the GPCR Biosensor Assays and match to this design:
1. cAMP Hunter cell lines were expanded from freezer stocks according to standard procedures.
2. Cells were seeded in a total volume of 20 μL into white walled, 384-well microplates and incubated at 37° C. for the appropriate time prior to testing.
3. cAMP modulation was determined using the DiscoverX HitHunter CAMP XS+assay.
1. For agonist determination, cells were incubated with sample in the presence of EC80 forskolin to induce response.
2. Media was aspirated from cells and replaced with 15 μL 2:1 HBSS/10 mM Hepes: CAMP XS+Ab reagent. […]
2. Microplates were read following signal generation with a PerkinElmer Envision™ instrument for chemiluminescent signal detection.
5. For Gi agonist mode assays, percentage activity is calculated using the following formula: % Activity=100%×(1−(mean RLU of test sample-mean RLU of MAX control)/(mean RLU of vehicle control−mean RLU of MAX control)).
8. For Gi antagonist or negative allosteric mode assays, percentage inhibition is calculated using the following formula: % Inhibition=100%×(mean RLU of test sample−mean RLU of EC80 control)/(mean RLU of forskolin positive control−mean RLU of […]

What is called inhibition is the share of the control response that was lost under treatment. On to `CN1CCCC(O)C1C(c1ccccc1)c1ccccc1` (centres unmarked) [Benedin, 2-benzhydryl-3-hydroxy-N-methyl-piperidine], for which the “% Inhibition at 10^−5M Benedin” value is reported as “weakly bind”. For the same compound, for the setting “10^−5 M, read-out: % Inhibition at 10^−5M Benedin”, the inhibition at 10 µM amounted to 21.4%.

The values are drawn from patent US20240316023A1, “BENEDIN, PIPERIDINE, 2-BENZHYDRYL-3-HYDROXY-N-METHYL-, HYDROCHLORIDE AND DERIVATIVES THEREOF FOR USE IN TREATING KLEINE-LEVIN SYNDROME” (priority 2021, published 2024).
